Where a chain is given by its changes, count along the chain named. Numbers in names are those of the source. Entries after “also recorded” stand apart in the source; their conditions may differ. Where two headings read alike, the source gives them in different places.
Legend:
JME seizures = details: JME patients, cited from earlier work
T type VDCC = details: cited from earlier work
[1] = tested on: high voltage activated calcium currents (HVDCC); details: cited from earlier work
[2] = cited from earlier work
P type HVDCC = P type HVDCC (Homo sapiens, UniProt O00555); details: cited from earlier work
N type HVDCC = N type HVDCC (Homo sapiens, UniProt Q00975); details: cited from earlier work
L-type HVDCC = details: cited from earlier work
[3] = tested on: EFHC1-transfected hippocampal primary culture neurons; test: Cell death analyses with VDCCs inhibitors; type: cell-based, mouse
Description: Cell death analyses with VDCCs inhibitors. Dissociated hippocampal primary culture neurons from embryonic day 16 mice were seeded in 24 well plates containing poly-L-lysine coated coverslips (5×10^4 cells/well). Neurons were transfected with pEGFP-EFHC1 on day 6 in vitro with antagonists and fixed 48 hours post transfection. Calcium channel inhibitors, ω-Agatoxin IVA (PEPTIDE […], INC.) for P-type (Cav2.1), ω-Conotoxin GVIA (PEPTIDE […], INC.) for N-type (Cav2.2), SNX-482 (PEPTIDE […], INC.) for R-type (Cav2.3), flunarizine (Nacalai Tesque) for T-type and nifedipine (SIGMA) for L-type VDCC, were added directly to neuronal culture 3 hrs post transfection.

PQ type VDCC (Cav2.1) = molecular target: T1, PQ type VDCC (Cav2.1) (Oryctolagus cuniculus, UniProt P27884); test: Patch-clamp analyses of HEK cell line with P/Q type VDCCs and wild type EFHC1 or mutant constructs; type: cell-based; details: for Activation V0.5 (mV): half-maximal voltage of activation; for Activation V0.5 (mV) / Inactivation V0.5 (mV) / Activation k (mV) / Inactivation K (mV): mean ± SEM; for Inactivation V0.5 (mV): half-maximal voltage of inactivation; for Activation k (mV) / Inactivation K (mV): slope factor
T1 construct: expressed in transfected cells; host or cells: HEK cell line

[4] = tested on: mouse hippocampal primary culture neurons; details: 24, 36 and 48 hours after transfection; mutants compared to wild-type EFHC1
Description: Mouse hippocampal neurons primary culture. Hippocampal neurons were isolated from embryonic day 16 mice and plated at 1-2×10^5 cells per well in 24 well plate containing glass coverslips coated with poly-1-lysine and grown in serum-free NEUROBASAL™ media supplemented with B27, 0.5 mM L-glutamine (Invitrogen).
Transfection and immunostaining of mouse hippocampal neurons. […] Cultures were fixed with 4% paraformaldehyde in PBS 16 and 48 hours after transfection, permeabilized with 0.3% Triton X-100, blocked in 3% normal goat serum in PBS, and treated with mouse monoclonal anti-MAP-2 antibody (1:500; Sigma) and Alexa fluor 594 goat anti-mouse IgG antibody (1:1000; Molecular Probes).
TUNEL assay. […] Forty-eight hours after transfection, neuronal apoptosis was detected using DeadEndTM Fluorometric TUNEL System (Promega). Nuclei were visualized with Hoescht 33342 (Molecular Probes). These cells were also stained with anti-Myc antibody (1:200; Cell Signaling) and Alexa fluor 594 goat anti-rabbit IgG antibody (1:1000). All experiments were carried out in duplicate wells and at least repeated three times. Neuron cells were observed on a confocal microscope (OLYMPUS FLUOVIEW) following 48 hours post transfection.
Cell death analyses with EFHC1 mutants. […] Surviving cell numbers were scored by counting GFP fluorescent-positive cells that attached to dishes. At each counting, detached cells (dead cells) were carefully removed by changing culture medium. Morphologies of cells (cell shape, length and number of neurites, shrinkage, etc.) were not considered for the counting. Surviving cell numbers were scored at 24, 36, and 48 hours after transfection. Analyses were repeated twice by using two independently prepared expression construct DNAs. In total, neurons in seven wells of 24 well plates were counted for each transfection and time point. Experiments were performed in a blinded fashion.

R-type VDCC (Cav2.3) = molecular target: T2, R-type VDCC (Cav2.3) (Oryctolagus cuniculus, UniProt Q02343); test: Patch-clamp analyses of BHK cells stably expressing Cav2.3 transfected with EFHC1 constructs; type: cell-based; details: whole cell patch-clamp, 24-48 hr after transfection
T2 construct: expressed in transfected cells; host or cells: BHK (BII-104-2) cells
Description: Electrophysiological analysis. A baby hamster kidney (BHK) cell line BHK (BII-104-2) stably transfected with the ociE (BII), α2/δ and β1a subunits, were cultured in DMEM medium containing 10% fetal bovine serum (FBS), 30 U/mL penicillin and 30 μg/mL streptomycin. To transiently express wild type or mutant EFHC1, BHK (BII-104-2) cells were transfected with the pEGFP-C2 plasmids (Clonetech) containing EGFP fused with cDNA for EFHC1 or its mutants using SuperFect Transfection Reagent (QIAGEN). For control experiments, EGFP was transiently expressed by transfecting BHK (BII-104-2) with the same amount of pEGFP without the EFHC1 inserts. Cells were trypsinized, diluted with the DMEM medium, and plated onto glass coverslips 18 hrs after transfection. Ca^2+ currents were recorded 24-48 hr after transfection from GFP-positive cells. Currents from BHK (BII-104-2) cells were recorded at room temperature (22-25° C.) using patch-clamp techniques of whole cell mode with an EPC-9 amplifier (HEKA, Germany). Patch pipettes were made from borosilicate glass capillaries (1.5 mm outer diameter and 0.87 mm inner diameter; Hilgenberg) by using a model P-97 Flaming-Brown micropipette puller (Sutter Instrument Co., CA). Pipette resistance ranged from 2 to 3 MΩ when filled with the pipette solutions described below. The series resistance was electronically compensated to >70% and both the leakage and the remaining capacitance were subtracted by −P/6 method. Currents were sampled at 100 kHz in activation kinetics, otherwise sampled at 50 kHz and filtered at 10 kHz. Calcium currents were recorded in an external solution that contained (in mM): 3 CaCl2, 148 tetraethylammonium chloride (TEA-C1), 10 glucose, and 10 HEPES, pH adjusted to 7.4 with Tris-OH. The pipette solution contained (in mM): 85 Cs-aspartate, 40 CsCl, 4 MgCl2, 5 EGTA, 2 ATP2Na, 5 HEPES, and 8 creatine-phosphate, pH adjusted to 7.4 with CsOH. To determine voltage-dependence of activation, amplitude of tail currents at −50 mV after 5 ms test pulse (−40 to 90 mV) was normalized to the maximal tail current amplitude. […]

T1 sequence (P27884 whole entry): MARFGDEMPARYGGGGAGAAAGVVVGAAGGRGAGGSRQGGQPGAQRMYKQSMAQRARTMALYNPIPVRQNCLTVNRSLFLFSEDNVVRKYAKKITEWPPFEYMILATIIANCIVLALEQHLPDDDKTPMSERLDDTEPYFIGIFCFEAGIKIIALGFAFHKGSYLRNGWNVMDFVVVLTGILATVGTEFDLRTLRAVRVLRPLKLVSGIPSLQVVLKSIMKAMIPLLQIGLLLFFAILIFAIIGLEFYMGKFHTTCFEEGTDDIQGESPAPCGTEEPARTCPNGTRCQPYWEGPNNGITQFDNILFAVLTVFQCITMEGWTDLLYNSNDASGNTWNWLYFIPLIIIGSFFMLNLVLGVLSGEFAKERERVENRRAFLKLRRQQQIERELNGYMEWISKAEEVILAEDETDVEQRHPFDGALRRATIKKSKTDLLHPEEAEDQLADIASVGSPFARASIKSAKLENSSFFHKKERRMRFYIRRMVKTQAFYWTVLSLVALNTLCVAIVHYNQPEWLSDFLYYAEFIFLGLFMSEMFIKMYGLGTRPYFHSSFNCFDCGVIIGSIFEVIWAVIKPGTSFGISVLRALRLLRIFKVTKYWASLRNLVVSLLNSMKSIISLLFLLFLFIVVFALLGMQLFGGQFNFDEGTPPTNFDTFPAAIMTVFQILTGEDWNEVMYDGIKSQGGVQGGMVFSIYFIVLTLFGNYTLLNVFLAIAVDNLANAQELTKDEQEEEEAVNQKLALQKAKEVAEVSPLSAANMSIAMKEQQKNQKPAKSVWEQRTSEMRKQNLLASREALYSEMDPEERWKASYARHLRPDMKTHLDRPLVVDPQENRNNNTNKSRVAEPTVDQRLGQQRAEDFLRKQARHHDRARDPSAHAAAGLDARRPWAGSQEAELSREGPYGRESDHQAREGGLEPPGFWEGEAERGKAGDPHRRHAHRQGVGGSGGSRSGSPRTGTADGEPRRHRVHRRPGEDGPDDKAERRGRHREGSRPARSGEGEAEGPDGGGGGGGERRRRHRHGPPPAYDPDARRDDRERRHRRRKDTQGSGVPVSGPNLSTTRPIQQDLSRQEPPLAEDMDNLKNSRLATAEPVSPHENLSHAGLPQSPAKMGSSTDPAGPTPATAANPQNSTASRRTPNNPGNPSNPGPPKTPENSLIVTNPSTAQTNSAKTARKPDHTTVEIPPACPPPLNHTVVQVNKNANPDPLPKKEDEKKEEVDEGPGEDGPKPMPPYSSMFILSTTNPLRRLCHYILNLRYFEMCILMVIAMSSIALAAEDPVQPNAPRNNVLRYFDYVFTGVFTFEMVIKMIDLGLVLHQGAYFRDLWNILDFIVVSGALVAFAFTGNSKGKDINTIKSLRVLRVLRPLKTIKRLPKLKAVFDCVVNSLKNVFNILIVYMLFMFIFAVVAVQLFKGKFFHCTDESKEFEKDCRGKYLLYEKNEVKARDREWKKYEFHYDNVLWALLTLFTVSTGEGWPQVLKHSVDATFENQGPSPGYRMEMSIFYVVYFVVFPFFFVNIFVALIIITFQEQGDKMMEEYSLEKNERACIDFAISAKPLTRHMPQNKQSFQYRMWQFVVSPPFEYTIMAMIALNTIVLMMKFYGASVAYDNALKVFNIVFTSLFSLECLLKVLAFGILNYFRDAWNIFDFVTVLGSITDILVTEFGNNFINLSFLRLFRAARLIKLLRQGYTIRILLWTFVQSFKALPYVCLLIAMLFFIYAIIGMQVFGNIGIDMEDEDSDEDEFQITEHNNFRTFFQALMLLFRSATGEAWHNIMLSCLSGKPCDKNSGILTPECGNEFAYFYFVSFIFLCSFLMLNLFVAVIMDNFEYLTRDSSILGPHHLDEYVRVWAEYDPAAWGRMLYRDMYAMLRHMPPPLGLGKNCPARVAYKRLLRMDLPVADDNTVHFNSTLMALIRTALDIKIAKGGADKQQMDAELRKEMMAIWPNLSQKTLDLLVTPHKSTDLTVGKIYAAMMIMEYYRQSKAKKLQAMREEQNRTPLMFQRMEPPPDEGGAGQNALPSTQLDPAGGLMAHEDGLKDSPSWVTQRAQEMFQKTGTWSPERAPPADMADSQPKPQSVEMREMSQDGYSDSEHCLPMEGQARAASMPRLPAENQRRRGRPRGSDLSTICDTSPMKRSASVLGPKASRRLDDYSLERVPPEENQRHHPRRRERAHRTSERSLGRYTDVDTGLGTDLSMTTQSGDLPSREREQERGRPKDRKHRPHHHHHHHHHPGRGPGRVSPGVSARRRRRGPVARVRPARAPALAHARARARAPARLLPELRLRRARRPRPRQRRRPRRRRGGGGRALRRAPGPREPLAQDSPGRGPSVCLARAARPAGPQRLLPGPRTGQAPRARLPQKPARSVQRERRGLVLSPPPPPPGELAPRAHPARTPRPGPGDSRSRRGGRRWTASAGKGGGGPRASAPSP
T1 sequence (P13806 27-1106 partner): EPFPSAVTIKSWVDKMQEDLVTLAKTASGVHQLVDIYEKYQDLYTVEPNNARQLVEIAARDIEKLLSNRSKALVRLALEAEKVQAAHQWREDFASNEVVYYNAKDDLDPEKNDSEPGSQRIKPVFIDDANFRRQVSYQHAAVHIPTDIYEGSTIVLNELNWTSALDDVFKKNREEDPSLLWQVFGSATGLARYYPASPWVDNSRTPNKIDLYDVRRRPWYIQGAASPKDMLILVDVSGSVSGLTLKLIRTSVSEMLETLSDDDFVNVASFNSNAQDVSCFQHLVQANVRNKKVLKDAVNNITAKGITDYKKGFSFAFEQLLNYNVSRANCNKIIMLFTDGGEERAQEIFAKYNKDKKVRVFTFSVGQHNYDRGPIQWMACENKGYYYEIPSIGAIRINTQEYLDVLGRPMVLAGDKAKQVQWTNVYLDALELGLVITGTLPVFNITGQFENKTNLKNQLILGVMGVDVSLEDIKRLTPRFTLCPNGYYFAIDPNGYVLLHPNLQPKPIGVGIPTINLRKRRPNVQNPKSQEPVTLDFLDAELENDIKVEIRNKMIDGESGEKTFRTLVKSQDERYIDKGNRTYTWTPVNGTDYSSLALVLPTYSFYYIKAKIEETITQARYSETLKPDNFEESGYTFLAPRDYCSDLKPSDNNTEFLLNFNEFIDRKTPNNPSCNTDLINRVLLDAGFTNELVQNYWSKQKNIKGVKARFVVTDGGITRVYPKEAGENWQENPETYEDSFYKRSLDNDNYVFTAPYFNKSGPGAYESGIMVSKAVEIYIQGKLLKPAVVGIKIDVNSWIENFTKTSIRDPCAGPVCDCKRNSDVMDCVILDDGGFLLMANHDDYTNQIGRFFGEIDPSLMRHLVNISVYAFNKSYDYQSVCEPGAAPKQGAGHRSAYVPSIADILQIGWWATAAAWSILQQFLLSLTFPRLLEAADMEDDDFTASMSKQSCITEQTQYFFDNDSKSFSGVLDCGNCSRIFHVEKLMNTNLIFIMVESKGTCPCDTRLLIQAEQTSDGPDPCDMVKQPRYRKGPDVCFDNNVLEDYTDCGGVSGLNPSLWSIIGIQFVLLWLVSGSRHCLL
T1 sequence (P19517 whole entry partner): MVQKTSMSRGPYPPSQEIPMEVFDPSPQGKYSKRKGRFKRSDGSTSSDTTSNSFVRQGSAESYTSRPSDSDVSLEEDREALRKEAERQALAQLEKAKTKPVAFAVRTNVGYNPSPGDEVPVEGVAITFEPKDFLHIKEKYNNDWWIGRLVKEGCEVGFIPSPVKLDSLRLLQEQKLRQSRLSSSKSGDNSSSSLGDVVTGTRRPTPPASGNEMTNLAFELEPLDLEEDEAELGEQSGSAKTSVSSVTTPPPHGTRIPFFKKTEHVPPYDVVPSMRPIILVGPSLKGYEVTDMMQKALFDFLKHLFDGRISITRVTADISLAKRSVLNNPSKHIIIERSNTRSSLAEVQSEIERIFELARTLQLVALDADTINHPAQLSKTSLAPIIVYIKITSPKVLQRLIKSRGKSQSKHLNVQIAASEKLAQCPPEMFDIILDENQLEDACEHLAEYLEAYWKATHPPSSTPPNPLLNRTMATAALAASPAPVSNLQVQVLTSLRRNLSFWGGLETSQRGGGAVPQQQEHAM

## CC[C@@H](C(N)=O)N1CCCC1=O [Levetiracetam]
JME seizures
  effect on JME seizures: seizure-suppressing; also recorded: suppress JME seizures; also recorded: seizure suppressing
T type VDCC
  T type VDCC: no effects
[1]; specific type not defined
  high voltage activated calcium currents: depresses
[2]
  Seizure protecting plasma concentrations in humans: 5 to 45 µg/mL

## CCCC(CCC)C(=O)O [Valproate]
[2]
  Seizure protecting plasma concentrations in humans: 40 to 150 µg/mL

## CCC1(c2ccccc2)C(=O)NC(=O)NC1=O [Phenobarbital]
[2]
  Seizure protecting plasma concentrations in humans: 10 to 40 µg/mL

## NC(=O)N1c2ccccc2C=Cc2ccccc21 [Carbamazepine]
JME seizures
  absences in JME: make absence appear for the first time
  effect on JME seizures: can make seizures worse; also recorded: have no effects on or aggravate JME seizures
JME seizures; listed as carbamezapine
  effect on JME seizures: can make seizures worse
[2]
  Seizure protecting plasma concentrations in humans: 4 to 10 µg/mL

## NS(=O)(=O)Cc1noc2ccccc12 [Zonisamide]
JME seizures
  effect on JME seizures: suppress JME seizures
JME seizures; listed as zonizamide
  effect on JME seizures: seizure-suppressing; also recorded: seizure suppressing
P type HVDCC; 500 μmol/L
  P-type calcium channel activity: possibly reduces
T type VDCC; 500 μmol/L, cultured fetal rat cortical neurons
  T type LVDCC: reduces
[1]; 500 μmol/L
  HVDCC: does not alter
N type HVDCC; 500 μmol/L
  N-type Ca^2+ channel activity: enhances
[2]
  Seizure protecting plasma concentrations in humans: 15 to 40 µg/mL

## CCC1(C)CC(=O)NC1=O (centres unmarked) [Ethosuximide]
JME seizures
  effect on JME seizures: no effects; also recorded: have no effects on or aggravate JME seizures
T type VDCC; thalamic neurons
  T type VDCC: reduce
T type VDCC; thalamic neurons, listed as ethozuximide
  T type VDCC: reduces
[2]
  Seizure protecting plasma concentrations in humans: 40 to 100 µg/mL

## CN1C(=O)OC(C)(C)C1=O [trimethadione]
JME seizures
  effect on JME seizures: no effects in JME
T type VDCC; thalamic neurons
  T type VDCC: reduce

## Nc1nnc(-c2cccc(Cl)c2Cl)c(N)n1 [Lamotrigine]
JME seizures
  effect on JME seizures: seizure-suppressing; also recorded: suppress JME seizures; also recorded: seizure suppressing
P type HVDCC
  P type HVDCC: inhibits
L-type HVDCC
  L type HVDCC: spares
N type HVDCC
  N type HVDCC: inhibits
[2]
  Seizure protecting plasma concentrations in humans: 3 to 14 µg/mL

## SNX-482
[3]; mouse hippocampal primary culture neurons
  apoptosis induced by EFHC1 overexpression: specifically suppressed
[3]; surviving cells 48 hours after transfection, antagonist added 3 hrs post transfection
  survival rates of EFHC1-positive neurons: specifically increased

## CC1(C)O[C@@H]2[C@@H](CO[C@@]3(COS(N)(=O)=O)OC(C)(C)O[C@@H]23)O1 [Topiramate]
JME seizures
  effect on JME seizures: seizure-suppressing; also recorded: suppress JME seizures; also recorded: seizure suppressing
L-type HVDCC; 10 μmol/L
  peak of L-type HVDCC: decreased
[2]
  Seizure protecting plasma concentrations in humans: 5 to 10 µg/mL

## O=C1NC(=O)C(c2ccccc2)(c2ccccc2)N1 [Phenytoin]
JME seizures
  absences in JME: make absence appear for the first time
  effect on JME seizures: can make seizures worse; also recorded: have no effects on or aggravate JME seizures
[2]
  Seizure protecting plasma concentrations in humans: 10 to 20 µg/mL

B1: F229L: EFHC1 protein with JME missense mutation F229L (Phe229Leu) (protein)
chain: MVSNPVHGLPFLPGTSFKDSTKTAFHRSQTLSYRNGYAIVRRPTVGIGGDRLQFNQLSQAELDELASKAPVLTYGQPKQAPPADFIPAHVAFDKKVLKFDAYFQEDVPMSTEEQYRIRQVNIYYYLEDDSMSVIEPVVENSGILQGKLIKRQRLAKNDRGDHYHWKDLNRGINITIYGKTFRVVDCDQFTQVFLESQGIELNPPEKMALDPYTELRKQPLRKYVTPSDLDQLKQFLTFDKQVLRFYAIWDDTDSMYGECRTYIIHYYLMDDTVEIREVHERNDGRDPFPLLMNRQRVPKVLVENAKNFPQCVLEISDQEVLEWYTAKDFIVGKSLTILGRTFFIYDCDPFTRRYYKEKFGITDLPRIDVSKREPPPVKQELPPYNGFGLVEDSAQNCFTLIPKAPKKDVIKMLVNDNKVLRYLAVLESPIPEDKDRRFVFSYFLATDMISIFEPPVRNSGIIGGKYLGRTKVVKPYSTVDNPVYYGPSDFFIGAVIEVFGHRFIILDTDEYVLKYMESNAAQYSPEALASIQNHVRKREAPAPEAESKQTEKDPGVQELEALIDTIQKQLKDHSCKDNIREAFQIYDKEASGYVDRDMFFKICESLNVPVDDSLVKELIRMCSHGEGKINYYNFVRAFSN
PQ type VDCC (Cav2.1)
  Activation V0.5 (mV): 21.0 ± 3.4 mV
  Inactivation V0.5 (mV): −13.7 ± 2.4 mV
  Activation k (mV): 9.25 ± 0.43 mV
  Inactivation K (mV): 6.53 ± 0.41 mV
PQ type VDCC (Cav2.1); patch-clamp
  inactivation speed of P/Q type VDCC (decelerating effect on calcium inactivation): abolished the decelerating effect
[4]
  cell-death effect (GFP-positive surviving cell numbers): significantly reversed
R-type VDCC (Cav2.3)
  R-type Ca2+ current generated by Cav2.3: significantly suppressed

B2: D253Y: EFHC1 protein with JME missense mutation D253Y (Asp253Tyr) (protein)
chain: B1 chain with L229F, D253Y
PQ type VDCC (Cav2.1); cells co-transfected with P/Q-type VDCC and EFHC1 constructs
  Ca2+ current density of P/Q-type VDCC (Cav2.1): prominently increased
PQ type VDCC (Cav2.1); compared with vector-transfected control P/Q-type-expressing cells
  sustained component of calcium currents: reduced
PQ type VDCC (Cav2.1)
  Activation V0.5 (mV): 19.7 ± 2.0 mV
  Inactivation V0.5 (mV): −10.9 ± 1.8 mV
  Activation k (mV): 7.60 ± 0.51 mV
  Inactivation K (mV): 6.08 ± 0.22 mV
[4]
  cell-death effect (GFP-positive surviving cell numbers): significantly reversed

— patent US11932908B2, “Compositions and methods for diagnosis and treatment of epilepsy” (THE REGENTS OF THE UNIVERSITY OF CALIFORNIA, priority 2004, dated 2024)
